{"source": "patent US20160051665A1", "about": "“INDUCTION OF IMMUNE RESPONSE” (priority 2010, published 2016)", "key": {"[1]": {"tested_on": "HBV-containing HepG2.2.15 cells", "experiment": "interferon-γ ELISpot: peptide-primed CTLs against BuCas-treated target cells", "format": "cell-based, human", "conditions": "BuCas 1 mg/ml twice at 3 day interval, FIG. 2B", "protocol": "Heparinized blood from healthy HLA-A2 donors was purchased from Research Blood Components, LLC, (Brighton, Mass.). Peripheral blood mononuclear cells were purified and cultured as described (13, 21). After initial stimulation with synthetic peptide, T cells were re-stimulated with CD4/CD8 T cell depleted autologous monocytes pulsed with synthetic peptide at 10 μg/ml for 5 days. IL-2 treatment and in vitro re-stimulation were repeated thrice prior to use of in vitro expanded T cells in ELISpot assays.\nIn vitro expanded CTLs were used as effectors in ELISpot assays to assess antigen stimulated interferon-γ release according to the manufacturer's instructions (BD-Pharmingen, San Jose, Calif.). Target cells were HepG2 human hepatoma cells (HBV negative; American Type Culture Collection) or HBV-containing HepG2.2.15 cells (22). […]\nPeptides presented on the surface of a cell in the context of the MHC class I complex should be recognized with high sensitivity upon incubation with cognate peptide-primed CTLs, with specific killing of the target cells. […] Target cell recognition was quantified by interferon-γ ELISpot assay.\nThe ability of in vitro generated CTLs to recognize and secrete interferon-γ was evaluated by ELISpot assay. […] The P value was calculated from a Student's t-Test analysis of experimental results."}, "[2]": {"tested_on": "woodchuck hepatitis virus (WHV)", "experiment": "serum WHV DNA by dot blot hybridization in chronic WHV carrier woodchucks", "format": "in vivo", "conditions": "for WHV DNA, Av(range): serum", "protocol": "All experimental procedures involving woodchucks were performed under protocols approved by the Cornell University Institutional Animal Care and Use Committee. Woodchucks were born to WHV-negative females in environmentally controlled laboratory animal facilities and inoculated at 3 days of age with 5 million infectious doses of a standardized WHV inoculum (23). Woodchucks were selected as chronic WHV carriers based on persistent detection of WHV surface antigen (WHsAg) and WHV DNA in serum prior to treatments. All animals were free of HCC at the beginning of the study as determined by hepatic ultrasound examination and normal serum activity of γ-glutamyl-transferase (GGT).\nTwenty adult chronically infected woodchucks were stratified by age, sex, body weight, serum viral load, and serum GGT activity into four treatment groups of five animals each. Drug was administered orally at 100 mg/kg (in sterile water), chosen after an initial dose finding trial. […] The subunit vaccine consisted of 22-nm WHsAg particles, purified by zonal ultracentrifugation from serum of WHV7P1-infected WHV carriers (24), inactivated with formalin, and adsorbed onto alum. Prior to alum adsorption, vaccine was tested in naïve, WHV-susceptible animals and no residual virus was detected. Purified WHsAg was not pretreated with enzymes that remove preS sequences.\nBlood samples were obtained for WHV DNA analysis and serological testing while animals were under general anesthesia (ketamine 50 mg/kg and xylazine 5 mg/kg intramuscularly). Samples were taken prior to drug administration on the first day of treatment and at the indicated time points.\nSerum WHV DNA was measured quantitatively by dot blot hybridization (assay sensitivity, ≧1.0×10^7 WHV genome equivalents per ml [WHVge/ml]) (25). Serum WHsAg, antibodies to WHV core antigen (anti-WHc), and WHV surface antigen (anti-WHs) were determined with WHV-specific enzyme immunoassays (26). Serum biochemical measurements included serum GGT, alkaline phosphatase (ALP), and marker of hepatocellular injury alanine aminotransferase (ALT), aspartate aminotransferase (AST), and sorbitol dehydrogenase (SDH) (25).\nWoodchucks chronically infected with WHV experienced significant immunological responses to envelope proteins following immunization with WHsAg-containing vaccines, especially in the context of low viral and antigen loads following treatment with an effective antiviral agent, 1-(2-fluoro-5-methyl-beta-L-arabinofuranosyl)-uracil (L-FMAU) (29, 35). Since BuCas treatment might be expected to reduce the amount of MHBs in the circulation and/or alter its immunological profile, the response to BuCas administration along with WHsAg vaccine was investigated. […] Animals were scored as positive if cells proliferated above the cut-off value of 2: 3.1. […]"}}, "data": [{"smiles": "CCCC(=O)O[C@H]1CN2CC[C@H](O)[C@@H]2[C@@H](O)[C@H]1O", "note": "[BuCas, 6-O-butanoyl castanospermine]", "values": [{"measurement": "presentation of the D-peptide epitope by target cells", "setting": "[1]; CTLs primed with D-peptide", "value": "increased significantly"}, {"measurement": "presentation of the N-peptide epitope by target cells", "setting": "[1]; CTLs primed with N-peptide", "value": "reduced"}, {"measurement": "viremia, in words", "setting": "[2]; chronic WHV carrier woodchucks, all times tested", "value": "not altered significantly"}, {"measurement": "antiviral response in woodchucks", "setting": "[2]; drug treated chronic WHV carrier woodchucks", "value": "no detectable antiviral response"}, {"measurement": "WHV DNA, Av(range)", "setting": "[2]; week 0 (baseline), chronic WHV carrier woodchucks", "value": "2.7(.4-7.0) genome equivalents (×10^10)"}, {"measurement": "WHV DNA, Av(range)", "setting": "[2]; week 10 (4 weeks after first vaccination), UD = <E07 GE, detection limit of dot blot hybridization", "value": "1.9(.9-4.8) genome equivalents (×10^10)"}]}]}
